pIC50: −log10 of the molar value.
What was measured:
hNav 1.7 = hNav 1.7 (Homo sapiens (Human), UniProt Q15858); assay: Electrophysiological evaluation, automated patch clamp IonWorks Quattro (Population Patch Clamp mode); format: cell-based; conditions: HEK293A cells stably expressing hNav 1.7/β1/β2; response to second depolarization pulse, pre-pulse potential set to V1/2; read-out: hNav1.7 IC50
[1] = system: mice and rats affected by thermal hyperalgesia; assay: Thermal hyperalgesia assay; format: in vivo; conditions: oral administration, constant dose, against the vehicle treatment group; latency to escape behaviors after thermal stimulation of hind paw;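 note: measurement times set by the study director and not disclosed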
[2] = system: painful diabetic neuropathy; conditions: cited from earlier work

Sequence of hNav 1.7 (Q15858 whole entry): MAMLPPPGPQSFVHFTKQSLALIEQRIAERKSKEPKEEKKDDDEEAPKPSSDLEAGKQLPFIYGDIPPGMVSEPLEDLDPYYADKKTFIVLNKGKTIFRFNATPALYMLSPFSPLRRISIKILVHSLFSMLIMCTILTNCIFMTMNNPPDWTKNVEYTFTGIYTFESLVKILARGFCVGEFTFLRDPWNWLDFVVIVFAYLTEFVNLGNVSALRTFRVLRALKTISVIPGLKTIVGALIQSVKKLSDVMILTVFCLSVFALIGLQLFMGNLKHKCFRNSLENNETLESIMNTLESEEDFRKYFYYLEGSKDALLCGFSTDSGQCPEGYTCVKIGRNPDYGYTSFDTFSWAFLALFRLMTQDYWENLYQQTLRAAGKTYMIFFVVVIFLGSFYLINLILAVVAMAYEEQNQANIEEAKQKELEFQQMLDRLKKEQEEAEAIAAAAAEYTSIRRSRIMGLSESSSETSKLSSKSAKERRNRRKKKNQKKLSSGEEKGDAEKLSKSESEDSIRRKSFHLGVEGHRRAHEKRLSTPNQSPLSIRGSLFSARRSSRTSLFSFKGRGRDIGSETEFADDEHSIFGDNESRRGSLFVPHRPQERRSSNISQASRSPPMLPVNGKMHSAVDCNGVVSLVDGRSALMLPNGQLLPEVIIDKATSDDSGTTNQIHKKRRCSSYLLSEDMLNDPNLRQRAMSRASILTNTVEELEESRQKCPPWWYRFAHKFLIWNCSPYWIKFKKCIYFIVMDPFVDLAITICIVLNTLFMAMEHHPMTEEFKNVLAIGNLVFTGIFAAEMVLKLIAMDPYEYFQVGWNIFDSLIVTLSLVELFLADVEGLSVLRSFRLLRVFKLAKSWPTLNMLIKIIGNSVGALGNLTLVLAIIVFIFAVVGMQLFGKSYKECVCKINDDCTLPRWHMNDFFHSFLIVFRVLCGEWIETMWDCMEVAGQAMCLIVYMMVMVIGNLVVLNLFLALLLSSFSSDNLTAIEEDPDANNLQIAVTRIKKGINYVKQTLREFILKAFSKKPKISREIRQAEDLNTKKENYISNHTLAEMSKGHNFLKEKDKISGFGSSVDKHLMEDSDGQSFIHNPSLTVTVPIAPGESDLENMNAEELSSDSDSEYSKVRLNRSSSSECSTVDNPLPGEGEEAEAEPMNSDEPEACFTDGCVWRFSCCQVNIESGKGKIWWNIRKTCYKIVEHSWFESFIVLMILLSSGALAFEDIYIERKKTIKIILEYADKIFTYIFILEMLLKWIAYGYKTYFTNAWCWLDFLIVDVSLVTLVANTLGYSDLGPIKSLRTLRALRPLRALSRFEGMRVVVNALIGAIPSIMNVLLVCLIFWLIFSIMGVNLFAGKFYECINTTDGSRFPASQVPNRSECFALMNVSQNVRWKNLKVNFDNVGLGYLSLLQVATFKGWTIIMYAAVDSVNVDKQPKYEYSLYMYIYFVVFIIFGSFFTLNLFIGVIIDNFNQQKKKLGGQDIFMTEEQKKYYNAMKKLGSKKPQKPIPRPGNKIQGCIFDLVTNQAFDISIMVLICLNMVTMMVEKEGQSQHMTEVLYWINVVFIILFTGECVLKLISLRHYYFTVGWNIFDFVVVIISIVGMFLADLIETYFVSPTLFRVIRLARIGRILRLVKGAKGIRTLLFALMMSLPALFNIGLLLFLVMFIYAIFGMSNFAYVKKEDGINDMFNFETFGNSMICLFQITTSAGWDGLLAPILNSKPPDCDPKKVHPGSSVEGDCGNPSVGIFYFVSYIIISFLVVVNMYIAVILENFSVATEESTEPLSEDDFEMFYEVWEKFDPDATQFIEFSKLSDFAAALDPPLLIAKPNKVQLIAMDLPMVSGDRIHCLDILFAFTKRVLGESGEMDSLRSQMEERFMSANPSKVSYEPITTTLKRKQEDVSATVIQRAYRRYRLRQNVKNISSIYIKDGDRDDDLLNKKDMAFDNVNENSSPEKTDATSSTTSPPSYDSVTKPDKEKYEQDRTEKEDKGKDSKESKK
Sequence of hNav 1.7 (Q07699 19-218 partner): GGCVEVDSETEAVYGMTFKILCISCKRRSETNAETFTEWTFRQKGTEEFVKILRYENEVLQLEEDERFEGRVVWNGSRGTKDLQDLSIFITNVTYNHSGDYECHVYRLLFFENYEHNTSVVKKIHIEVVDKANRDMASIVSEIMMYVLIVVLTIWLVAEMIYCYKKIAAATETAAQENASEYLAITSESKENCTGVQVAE
Sequence of hNav 1.7 (O60939 30-215 partner): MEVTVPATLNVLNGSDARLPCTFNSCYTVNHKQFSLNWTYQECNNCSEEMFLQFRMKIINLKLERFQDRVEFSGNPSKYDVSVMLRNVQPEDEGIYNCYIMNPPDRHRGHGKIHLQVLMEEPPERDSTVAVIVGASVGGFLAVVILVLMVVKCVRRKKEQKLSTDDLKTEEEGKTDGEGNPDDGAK

Row | SMILES | pIC50 (hNav 1.7) | Ratio of improving pain score (%) [1] | effective therapeutic ratio based on self-evaluation of patients [2]
1 | Cc1cc(S(=O)(=O)Nc2ccncn2)c(F)cc1O[C@H]1CC(F)(F)CC[C@@H]1c1ccnn1C [Example 137, 4-{[(1S,2R)-5,5-Difluoro-2-(1-methyl-1H-pyrazol-5-yl)cyclohexyl]oxy}-2-fluoro-5-methyl-N-(pyrimidin-4-yl)benzenesulfonamide] | 7.52 | A (“A” when the rate was 61 to 100%) | –
2 | Cc1cc(S(=O)(=O)Nc2ccncn2)c(F)cc1O[C@H]1CC(F)(F)CC[C@@H]1c1cn[nH]c1 [Example 143, 4-{[(1S,2R)-5,5-Difluoro-2-(1H-pyrazol-4-yl)cyclohexyl]oxy}-2-fluoro-5-methyl-N-(pyrimidin-4-yl)benzenesulfonamide] | 7.68 | B (“B” when the rate was 31 to 60%) | –
3 | Cc1cc(S(=O)(=O)Nc2ccncn2)c(F)cc1O[C@H]1CCC[C@@H]1c1ccn[nH]1 [Example 148, 2-Fluoro-5-methyl-4-{[(1S,2R)-2-(1H-pyrazol-5-yl)cyclopentyl]oxy}-N-(pyrimidin-4-yl)benzenesulfonamide] | 7.74 | B (“B” when the rate was 31 to 60%) | –
4 | O=S(=O)(Nc1ccncn1)c1cc(Cl)c(O[C@H]2CCC[C@@H]2c2ccn[nH]2)cc1F [Example 150, 5-Chloro-2-fluoro-4-{[(1S,2R)-2-(1H-pyrazol-5-yl)cyclopentyl]oxy}-N-(pyrimidin-4-yl)benzenesulfonamide] | 7.68 | C (“C” when the rate was 0 to 30%) | –
5 | O=S(=O)(Nc1ccncn1)c1cc(Cl)c(O[C@H]2CCCC[C@@H]2c2ccn[nH]2)cc1F [Example 158, 5-Chloro-2-fluoro-4-{[(1S,2R)-2-(1H-pyrazol-5-yl)cyclohexyl]oxy}-N-(pyrimidin-4-yl)benzenesulfonamide] | 7.55 | C (“C” when the rate was 0 to 30%) | –
6 | Cn1nccc1[C@H]1C[C@H](O)CC[C@@H]1Oc1cc(F)c(S(=O)(=O)Nc2ccncn2)cc1Cl [Example 165, 5-Chloro-2-fluoro-4-{[(1S,2R,4R)-4-hydroxy-2-(1-methyl-1H-pyrazol-5-yl)cyclohexyl]oxy}-N-(pyrimidin-4-yl)benzenesulfonamide] | 7.40 | B (“B” when the rate was 31 to 60%) | –
7 | O=S(=O)(Nc1ccncn1)c1c(F)cc(O[C@H]2CCCC[C@@H]2c2cn[nH]c2)cc1F [Example 171, 2,6-Difluoro-4-{[(1S,2R)-2-(1H-pyrazol-4-yl)cyclohexyl]oxy}-N-(pyrimidin-4-yl)benzenesulfonamide] | 7.37 | B (“B” when the rate was 31 to 60%) | –
8 | CC(C)C[C@H](CN)CC(=O)O [pregabalin] | – | – | approximately 50%
